What was measured:
[1] = Half life in mouse liver microsomes
[2] = AUC(infinity) in Sprague-Dawley rat at 1 mg/kg, iv; format: ADME, organism-based; parameters: time infinity, dose 1 mg/kg, route intravenous; settings: plasma
[3] = Growth inhibition of human HMEC cells after 5 days by SRB assay; format: cell-based; settings: HMEC cells
[4] = system: Rattus norvegicus; experiment: Clearance in Sprague-Dawley rat at 1 mg/kg, iv; format: ADME, organism-based; parameters: dose 1 mg/kg, route intravenous; settings: in vivo
[5] = AUC(infinity) in Sprague-Dawley rat at 5 mg/kg, po; format: ADME, organism-based; parameters: dose 5 mg/kg, route oral, time infinity; settings: plasma
[6] = system: MCF7; experiment: Growth inhibition of human MCF7 cells after 5 days by SRB assay; format: functional; settings: Homo sapiens, MCF7, 120 h
[7] = Oral bioavailability in beagle dog at 5 mg/kg; format: ADME, organism-based, Canis lupus familiaris; settings: in vivo
[8] = Oral bioavailability in Sprague-Dawley rat at 5 mg/kg; format: ADME, organism-based; settings: in vivo
[9] = system: MDA-MB-231; experiment: Growth inhibition of human MDA-MB-231 cells after 5 days by SRB assay; format: functional; settings: Homo sapiens, MDA-MB-231, 120 h
[10] = system: HCC1954; experiment: Growth inhibition of human HCC1954 cells after 5 days by SRB assay; format: functional; settings: Homo sapiens, HCC1954, 120 h
[11] = AUC(infinity) in beagle dog at 1 mg/kg, iv; format: ADME, organism-based, Canis lupus familiaris; parameters: time infinity, dose 1 mg/kg, route intravenous; settings: plasma
[12] = system: Canis familiaris; experiment: Clearance in beagle dog at 1 mg/kg, iv; format: ADME, organism-based, Canis lupus familiaris; parameters: dose 1 mg/kg, route intravenous; settings: in vivo
[13] = biological target: T1, Cytochrome P450 1A2 (Homo sapiens, UniProt P05177); experiment: Inhibition of CYP1A2 (unknown origin) by fluorescence assay; format: ADME
T1 sequence (P05177 whole entry): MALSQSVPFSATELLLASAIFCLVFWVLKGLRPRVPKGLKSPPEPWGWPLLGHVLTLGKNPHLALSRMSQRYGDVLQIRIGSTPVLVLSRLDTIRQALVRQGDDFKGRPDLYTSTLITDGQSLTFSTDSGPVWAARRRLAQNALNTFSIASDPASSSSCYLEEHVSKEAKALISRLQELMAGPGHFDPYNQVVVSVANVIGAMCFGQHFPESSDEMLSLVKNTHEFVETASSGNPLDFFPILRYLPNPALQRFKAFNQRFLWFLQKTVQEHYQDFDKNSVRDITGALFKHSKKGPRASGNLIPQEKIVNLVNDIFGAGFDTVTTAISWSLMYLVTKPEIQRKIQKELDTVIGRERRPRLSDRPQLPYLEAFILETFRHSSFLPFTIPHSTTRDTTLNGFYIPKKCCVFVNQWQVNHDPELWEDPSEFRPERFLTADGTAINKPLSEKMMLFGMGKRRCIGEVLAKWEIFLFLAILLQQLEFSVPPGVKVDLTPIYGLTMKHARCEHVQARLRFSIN

[14] = Half life in dog liver microsomes
[15] = AUC(infinity) in beagle dog at 5 mg/kg, po; format: ADME, organism-based, Canis lupus familiaris; parameters: time infinity, dose 5 mg/kg, route oral; settings: plasma
[16] = Half life in Sprague-Dawley rat at 1 mg/kg, iv; format: ADME, organism-based; parameters: dose 1 mg/kg, route intravenous; settings: in vivo
[17] = Cmax in athymic CD1 nude mouse at 25 mg/kg, po by LC/MS/MS analysis; format: ADME, organism-based; parameters: dose 25 mg/kg, route oral; settings: in vivo
[18] = biological target: Cytochrome P450 2C19 (Homo sapiens, UniProt P33261); experiment: Inhibition of CYP2C19 (unknown origin) by fluorescence assay
[19] = system: MDA-MB-468; experiment: Growth inhibition of human MDA-MB-468 cells after 5 days by SRB assay; format: functional; settings: Homo sapiens, MDA-MB-468, 120 h
[20] = biological target: Cytochrome P450 2C9 (Homo sapiens, UniProt P11712); experiment: Inhibition of CYP2C9 (unknown origin) by fluorescence assay
[21] = biological target: Cytochrome P450 2D6 (Homo sapiens, UniProt P10635); experiment: Inhibition of CYP2D6 (unknown origin) by fluorescence assay; format: ADME
[22] = Half life in beagle dog at 1 mg/kg, iv; format: ADME, organism-based, Canis lupus familiaris; parameters: dose 1 mg/kg, route intravenous; settings: in vivo
[23] = Half life in rat liver microsomes
[24] = Half life in human liver microsomes
[25] = AUC in athymic CD1 nude mouse at 25 mg/kg, po by LC/MS/MS analysis; format: ADME, organism-based; parameters: dose 25 mg/kg, route oral; settings: plasma
[26] = biological target: T2, Cytochrome P450 3A4 (Homo sapiens, UniProt P08684); experiment: Inhibition of CYP3A4 (unknown origin) using BFC as substrate by fluorescence assay
[27] = biological target: T3, Serine/threonine-protein kinase PLK4 (Homo sapiens, UniProt O00444); experiment: Inhibition of PLK4 (unknown origin) by ELISA
T3 sequence (O00444 whole entry): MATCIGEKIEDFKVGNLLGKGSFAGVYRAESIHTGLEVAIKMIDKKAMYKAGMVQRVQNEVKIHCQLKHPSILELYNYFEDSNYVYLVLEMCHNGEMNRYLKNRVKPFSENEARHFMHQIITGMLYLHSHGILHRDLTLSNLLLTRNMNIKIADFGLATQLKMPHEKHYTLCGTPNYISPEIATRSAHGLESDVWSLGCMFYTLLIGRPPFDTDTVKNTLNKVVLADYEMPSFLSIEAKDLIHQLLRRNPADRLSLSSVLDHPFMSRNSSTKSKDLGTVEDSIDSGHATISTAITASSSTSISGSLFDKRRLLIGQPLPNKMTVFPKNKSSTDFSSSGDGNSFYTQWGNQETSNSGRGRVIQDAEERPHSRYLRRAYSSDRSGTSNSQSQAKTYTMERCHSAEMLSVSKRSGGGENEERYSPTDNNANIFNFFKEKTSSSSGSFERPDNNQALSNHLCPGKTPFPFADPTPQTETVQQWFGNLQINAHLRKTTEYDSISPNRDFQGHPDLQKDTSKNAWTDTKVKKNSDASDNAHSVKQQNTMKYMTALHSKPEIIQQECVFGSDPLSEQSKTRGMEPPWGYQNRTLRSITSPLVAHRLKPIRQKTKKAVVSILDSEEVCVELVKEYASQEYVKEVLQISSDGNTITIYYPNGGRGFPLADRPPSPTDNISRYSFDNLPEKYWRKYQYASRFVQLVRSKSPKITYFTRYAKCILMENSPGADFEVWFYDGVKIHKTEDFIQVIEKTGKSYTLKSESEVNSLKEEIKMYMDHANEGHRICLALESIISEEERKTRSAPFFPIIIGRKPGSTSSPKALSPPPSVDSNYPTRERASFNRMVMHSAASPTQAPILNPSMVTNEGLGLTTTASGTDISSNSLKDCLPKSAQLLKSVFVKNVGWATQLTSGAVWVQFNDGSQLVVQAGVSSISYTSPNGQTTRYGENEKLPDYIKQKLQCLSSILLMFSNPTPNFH

[28] = biological target: T2, Cytochrome P450 3A4; experiment: Inhibition of CYP3A4 (unknown origin) using DBF as substrate by fluorescence assay

Sequence of Cytochrome P450 2D6 (P10635 whole entry): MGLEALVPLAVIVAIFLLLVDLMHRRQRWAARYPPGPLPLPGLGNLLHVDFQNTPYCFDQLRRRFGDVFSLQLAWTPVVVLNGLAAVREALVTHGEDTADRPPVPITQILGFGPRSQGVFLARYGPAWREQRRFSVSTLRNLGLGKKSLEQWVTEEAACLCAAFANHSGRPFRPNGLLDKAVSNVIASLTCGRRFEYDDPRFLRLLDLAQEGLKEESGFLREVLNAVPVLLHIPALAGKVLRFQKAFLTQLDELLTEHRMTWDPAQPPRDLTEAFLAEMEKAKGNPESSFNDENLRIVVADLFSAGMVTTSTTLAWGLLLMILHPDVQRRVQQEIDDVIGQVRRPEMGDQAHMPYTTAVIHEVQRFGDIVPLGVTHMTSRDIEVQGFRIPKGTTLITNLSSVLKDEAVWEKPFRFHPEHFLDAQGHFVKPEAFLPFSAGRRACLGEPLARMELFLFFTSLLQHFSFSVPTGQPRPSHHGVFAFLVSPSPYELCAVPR
Sequence of Cytochrome P450 2C19 (P33261 whole entry): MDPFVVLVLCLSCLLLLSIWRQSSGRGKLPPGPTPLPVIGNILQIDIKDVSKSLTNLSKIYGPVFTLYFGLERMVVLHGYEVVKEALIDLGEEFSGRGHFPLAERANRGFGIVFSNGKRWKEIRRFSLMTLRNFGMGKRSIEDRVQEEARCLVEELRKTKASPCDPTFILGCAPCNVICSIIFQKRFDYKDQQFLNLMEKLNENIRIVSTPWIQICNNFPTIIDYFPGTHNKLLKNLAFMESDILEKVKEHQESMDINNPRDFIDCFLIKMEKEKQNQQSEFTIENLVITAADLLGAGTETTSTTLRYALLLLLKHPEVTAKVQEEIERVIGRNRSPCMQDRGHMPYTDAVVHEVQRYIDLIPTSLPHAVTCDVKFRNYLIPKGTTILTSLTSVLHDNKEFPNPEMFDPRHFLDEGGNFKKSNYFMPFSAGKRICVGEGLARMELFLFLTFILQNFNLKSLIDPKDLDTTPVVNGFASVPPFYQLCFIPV
Sequence of Cytochrome P450 2C9 (P11712 whole entry): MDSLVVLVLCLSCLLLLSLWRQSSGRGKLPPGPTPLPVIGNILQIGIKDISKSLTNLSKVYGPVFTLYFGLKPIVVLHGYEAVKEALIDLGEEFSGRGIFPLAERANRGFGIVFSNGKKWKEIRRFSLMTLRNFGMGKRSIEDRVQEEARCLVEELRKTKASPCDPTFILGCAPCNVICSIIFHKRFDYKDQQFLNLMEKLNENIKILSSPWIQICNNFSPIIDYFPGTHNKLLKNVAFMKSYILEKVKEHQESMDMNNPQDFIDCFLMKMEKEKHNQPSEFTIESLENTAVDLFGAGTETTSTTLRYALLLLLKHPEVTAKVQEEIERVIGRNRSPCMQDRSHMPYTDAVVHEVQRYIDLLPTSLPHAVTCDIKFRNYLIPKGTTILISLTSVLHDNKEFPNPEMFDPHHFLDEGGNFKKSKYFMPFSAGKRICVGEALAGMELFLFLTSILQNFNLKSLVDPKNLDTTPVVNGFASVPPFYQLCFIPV
T2 sequence (P08684 whole entry): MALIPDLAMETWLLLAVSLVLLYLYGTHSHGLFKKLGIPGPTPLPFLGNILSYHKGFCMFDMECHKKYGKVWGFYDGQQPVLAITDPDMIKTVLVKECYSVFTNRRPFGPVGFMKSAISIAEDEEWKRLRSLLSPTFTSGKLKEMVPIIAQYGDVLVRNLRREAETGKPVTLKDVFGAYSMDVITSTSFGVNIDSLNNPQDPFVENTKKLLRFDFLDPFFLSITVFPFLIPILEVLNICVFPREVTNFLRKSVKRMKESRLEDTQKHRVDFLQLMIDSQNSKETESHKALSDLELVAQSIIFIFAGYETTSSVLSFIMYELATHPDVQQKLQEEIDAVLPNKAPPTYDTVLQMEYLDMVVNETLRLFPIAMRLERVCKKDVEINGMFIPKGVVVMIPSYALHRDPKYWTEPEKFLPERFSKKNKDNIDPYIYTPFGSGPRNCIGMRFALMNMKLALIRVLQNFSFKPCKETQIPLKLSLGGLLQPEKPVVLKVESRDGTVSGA

| SMILES | half-life ([1]; liver microsomes) [min] | GI50 at 120 h [3] [nM] | GI50 [6] [nM] | GI50 [9] [nM] | GI50 [10] [nM] | inhibition (INH) [13] | half-life ([14]; liver microsomes) [min] | Cmax [17] [ng/mL] | IC50 [18] [nM] | GI50 [19] [nM] | IC50 [20] [nM] | inhibition (INH) [21] | half-life ([23]; liver microsomes) [min] | half-life ([24]; liver microsomes) [min] | AUC [25] [ng·h/mL] | IC50 [26] [nM] | IC50 [27] [nM] | IC50 [28] [nM] | half-life ([1]; microsomes) [min] | half-life ([24]; microsomes) [min] | further results |
| --- | --- | --- | --- | --- | --- | --- | --- | --- | --- | --- | --- | --- | --- | --- | --- | --- | --- | --- | --- | --- | --- |
| Cc1ccc2c(c1)[C@]1(C[C@H]1c1ccc3c(/C=C/c4ccc(CN5CCOCC5)cc4)n[nH]c3c1)C(=O)N2 | 13 | 9300 | < 10 | 22000 | < 10 | Not Active | 9.5 | 2100 | 1200 | 13 | 1000 | Not Active | 9 | 56 | 5500 | – | – | – | – | – | AUC(0-inf) [2]: 285 ng·h/mL; clearance [4]: 58.3 mL/min/kg; AUC(0-inf) [5]: 410 ng·h/mL; bioavailability [7]: 29%; bioavailability [8]: 28%; AUC(0-inf) [11]: 795 ng·h/mL; clearance [12]: 23.3 mL/min/kg; AUC(0-inf) [15]: 1140 ng·h/mL; half-life [16]: 96 min; half-life [22]: 420 min |
| CN1CCN(c2ccc(/C=C/c3n[nH]c4cc([C@@H]5C[C@@]56C(=O)N(C)c5ccccc56)ccc34)cn2)CC1 | 7 | – | 20 | 600 | 5 | Not Active | – | 700 | 1200 | 1 | 3800 | Not Active | – | 27 | 1600 | 300 | 1.3 | 2900 | – | – | – |
| O=C1Nc2ccccc2[C@]12C[C@H]2c1ccc2c(/C=C/c3ccc(N4CCNCC4)cc3)n[nH]c2c1 | – | 21000 | 20 | 23 | 260 | Not Active | – | 120 | 900 | 2 | 1700 | Not Active | – | – | 340 | – | 0.9 | 2800 | 19 | 46 | – |
| COc1ccc2c(c1)[C@]1(C[C@H]1c1ccc3c(/C=C/c4ccc(CN5C[C@@H](C)O[C@@H](C)C5)cc4)n[nH]c3c1)C(=O)N2C | – | > 30000 | 21 | 50000 | 15 | Not Active | – | 3400 | 760 | 29 | 440 | Not Active | – | – | 6800 | 10000 | 5.7 | > 1000 | 10 | > 60 | half-life ([14]; microsomes): > 60 min; half-life ([23]; microsomes): 18 min |
| COc1ccc2c(c1)[C@]1(C[C@H]1c1ccc3c(/C=C/c4ccc([C@H](C)N5CCOCC5)cc4)n[nH]c3c1)C(=O)N2C | – | 9600 | 50 | 1000 | 10 | Not Active | – | 3300 | 900 | 10 | 440 | Not Active | – | – | 16000 | 450 | 1.5 | 11000 | 7.2 | 53 | half-life ([14]; microsomes): 6.8 min; half-life ([23]; microsomes): 10 min |
| COc1ccc2c(c1)[C@]1(C[C@H]1c1ccc3c(/C=C/c4ccc(CN5[C@H](C)CN(C)C[C@@H]5C)cc4)n[nH]c3c1)C(=O)N2 | 38 | – | 2500 | 2200 | 2300 | Not Active | 39 | 1300 | 810 | 10 | 560 | Not Active | 49 | > 60 | 2200 | 10000 | 0.39 | 1600 | – | – | – |
| CC(C)N1CCC(Oc2ccc(/C=C/c3n[nH]c4cc([C@@H]5C[C@@]56C(=O)Nc5ccccc56)ccc34)cc2)CC1 | 30 | 4100 | 67 | 1600 | 7 | Not Active | > 60 | 510 | 1900 | 5 | 2400 | Not Active | > 60 | > 60 | 1400 | > 1000 | 1.5 | 1600 | – | – | – |
